Experimental data as given in publication PMC12057046, “Elucidation of short linear motif-based interactions of the MIT and rhodanese domains of the ubiquitin-specific protease 8” (Biology Direct, 2025).

Target: T1, USP8 Rhod domain (Homo sapiens, UniProt P40818)
T1 construct: USP8 Rhod (174–317) (UniProt: P40818); GST (cleaved yes); made in house; host or cells: Escherichia coli BL21-Gold (DE3)
T1 sequence (P40818 174-317): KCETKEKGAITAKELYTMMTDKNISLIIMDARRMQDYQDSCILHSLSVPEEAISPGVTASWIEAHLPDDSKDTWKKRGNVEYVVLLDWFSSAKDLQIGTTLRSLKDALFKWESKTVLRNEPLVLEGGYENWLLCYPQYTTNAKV
Assay: Peptide-phage display-based deep mutational scanning (DMS), USP8 Rhod domain
Format: binding
Conditions: PSSM, library USP8_DMS, days 2,3; position 7
Description: Four rounds of phage selections were carried out using the second generation human disorderome library or the constructed deep mutational scanning library. At least three individual replicates were used for each bait protein. 10 µg of GST-tagged proteins or GST control (diluted in PBS from the stock of proteins kept in the purification elution buffer) were immobilized in 100 µL PBS on a 96-well MaxiSorp (Nunc) plate overnight at 4 °C. The plates were incubated with blocking buffer (with 0.5% BSA in PBS) for 1 h at 4 °C followed by washing with 0.05% Tween 20 in PBS four times. The naïve phage library (10^11 CFU) was diluted in 1/5th volume PEG/NaCl (20% PEG-8000, 0.4 M NaCl) and 1X PBS, incubated on ice for 10 min and centrifuged at 10,000 [drawing 3] g for 10 min. The pellet was resuspended in the volume of PBS (100 µL/ well). The GST-coated control plate was incubated with 100 µL library per well in PBS for 1 h at 4 °C to remove non-specific binders. The supernatant was transferred to the target wells and incubated for 2 h at 4 °C. The wells were washed five times with 0.05% Tween 20 in PBS and the bound phages were eluted with 100 µL per well log-phase E. coli OmniMAX by incubating at 37° C while shaking. After 30 min, M13KO7 helper phages were added and incubated for an additional 45 min. The bacterial cultures were transferred to 1 mL 2YT supplemented with 100 µg/mL carbenicillin, 30 µg/mL kanamycin and 0.3 mM IPTG and grew overnight at 37 °C while shaking. The following day the cultures were centrifuged for 10 min at 2,000 [drawing 4] g, 4 °C. 1/10th volume of 10 [drawing 5] PBS was added to adjust the pH and heated at 65 °C for 10 min. The phage pools from each round were used as in-phages for the next round of selections.
The samples were prepared for NGS as previously described. […] The PCR products were normalized with 25 µL Mag-bind Total Pure NGS beads (Omega Biotek) and 10 µL of each eluted sample (Qiagen Elution Buffer) was pooled and cleaned-up with a PCR purification kit (Qiagen). The PCR product was confirmed by 2% agarose electrophoresis and the band was extracted with QIAquick Gel extraction Kit (Qiagen) and eluted with 30 µL TE buffer. The dsDNA was quantified using QuantiT PicoGreen dsDNA Assay Kit (Thermo Fisher) and sent for NGS (Illumina MiSeq v3, 1 × 150 bp read setup, 20% PhiX, NGI SciLifeLab facility, Sweden). The NGS data were demultiplexed, adapter regions were trimmed and sequences with an average quality of at least 20 were translated to peptide sequences. The NGS data were analysed using custom Python scripts. The total read NGS counts for each selection experiment of each peptide sequence were compiled and annotated in PepTools (https://slim.icr.ac.uk/tools/peptools/). Since ProP-PD is in essence a competition assay, the possibility of the input phage library influencing the selection outcome was explored. […] Pearson correlation coefficient and p-value were calculated using Python’s SciPy library.

Row | Substance | enrichment_relative_to_wt at position 7 (wt G) | proportion of amino acid at position 7 (wt G)
1 | KIAA1614_Q5VZ46_569_584 G7A (MERVLGALSSPLRLLP; UniProt Q5VZ46 569-584, looked up, variant G7A) | 1.68 | 0.0259
2 | KIAA1614_Q5VZ46_569_584 G7D (MERVLGDLSSPLRLLP; peptide 569-584; UniProt Q5VZ46 569-584, looked up, variant G7D) | 17 | 0.26

Same assay, conditions: ProP-PD DMS, bait USP8_Rhodanese__P40818_174_317; pair wild-type GMERVLGGLSSPLRLL (wt_00013) vs mutant; positive where wild-type fraction is higher, negative where mutant fraction is higher

Row | Substance | hit_pair_ratio
3 | GMERVLGGLSSPFRLL | 65.83
4 | GMERVLGGLSSPGRLL | 32.20
5 | GMERVLGGLSSPHRLL | 80.49
6 | GMERVLGGLSSPKRLL | 321.97
7 | GMERVLGGLSSPLALL | -3.54
8 | GMERVLGGLSSPLELL | 107.32
9 | GMERVLGGLSSPLFLL | 1.48
10 | GMERVLGGLSSPLGLL | 107.32
11 | GMERVLGGLSSPLHLL | 5.88
12 | GMERVLGGLSSPLILL | -3.18
13 | GMERVLGGLSSPLKLL | 5.73
14 | GMERVLGGLSSPLLLL | 2.57
15 | GMERVLGGLSSPLMLL | -10.76
16 | GMERVLGGLSSPLNLL | 38.62
17 | GMERVLGGLSSPLQLL | 59.13
18 | GMERVLGGLSSPLRAL | 160.99
19 | GMERVLGGLSSPLRGL | 160.99
20 | GMERVLGGLSSPLRIL | 321.97
21 | GMERVLGGLSSPLRLA | 131.67

Row | Substance | hit_pair_ratio
22 | GMERVLGGLSSPLRLF | 80.49
23 | GMERVLGGLSSPLRLG | 321.97
24 | GMERVLGGLSSPLRLH | 8.26
25 | GMERVLGGLSSPLRLI | 4.34
26 | GMERVLGGLSSPLRLM | -1.86
27 | GMERVLGGLSSPLRLN | 321.97
28 | GMERVLGGLSSPLRLP | 160.99
29 | GMERVLGGLSSPLRLQ | 26.83
30 | GMERVLGGLSSPLRLT | 131.67
31 | GMERVLGGLSSPLRLV | 40.25
32 | GMERVLGGLSSPLRNL | 160.99
33 | GMERVLGGLSSPLRVL | 160.99
34 | GMERVLGGLSSPLSLL | -1.20
35 | GMERVLGGLSSPLTLL | 1.50
36 | GMERVLGGLSSPLVLL | -21.41
37 | GMERVLGGLSSPLWLL | -1.66
38 | GMERVLGGLSSPLYLL | 5.39
39 | GMERVLGGLSSPMRLL | 7.90
40 | GMERVLGGLSSPNRLL | 321.97

Row | Substance | hit_pair_ratio
41 | GMERVLGGLSSPPRLL | 160.99
42 | GMERVLGGLSSPRRLL | 160.99
43 | GMERVLGGLSSPSRLL | 1.14
44 | GMERVLGGLSSPTRLL | 1.41
45 | GMERVLGGLSSPVRLL | 5.59
46 | GMERVLGGLSSPWRLL | 2.81
47 | GMERVLGGLSSPYRLL | 16.65
48 | GMERVLGGLSSQLRLL | 321.97
49 | GMERVLGGLSSRLRLL | 160.99
50 | GMERVLGGLSSSLRLL | 8.62
51 | GMERVLGGLSSTLRLL | 131.67
52 | GMERVLGGLSTPLRLL | 2.98
53 | GMERVLGGLSVPLRLL | 93.45
54 | GMERVLGGLSYPLRLL | 321.97
55 | GMERVLGGLVSPLRLL | 321.97
56 | GMERVLGGMSSPLRLL | 21.15
57 | GMERVLGGRSSPLRLL | 160.99
58 | GMERVLGGWSSPLRLL | 10.09
59 | GMERVLGGYSSPLRLL | 32.92

Same assay, conditions: ProP-PD pairs, bait USP8_Rhodanese__P40818_174_317; wild-type/mutant pair, wild type KIAA1614 569-584 GMERVLGGLSSPLRLL (wt_00013)

Row | Substance | hit_pair_ratio
60 | GMERVLGGNSSPLRLL | 1.15
61 | GMERVLGGPSSPLRLL | 2.15
62 | GMERVLGGQSSPLRLL | -8.29
63 | GMERVLGGSSSPLRLL | 2.67
64 | GMERVLGGTSSPLRLL | -7.40
65 | GMERVLGGVSSPLRLL | -2.88
66 | GMERVLGNLSSPLRLL | 160.99
67 | GMERVLGTLSSPLRLL | 321.97
68 | GMERVLGVLSSPLRLL | 14.78
69 | GMERVLHGLSSPLRLL | 6.31
70 | GMERVLIGLSSPLRLL | 3.89
71 | GMERVLKGLSSPLRLL | 131.67
72 | GMERVLLGLSSPLRLL | 3.42
73 | GMERVLMGLSSPLRLL | -3.47
74 | GMERVLNGLSSPLRLL | -1.21
75 | GMERVLPGLSSPLRLL | 131.67
76 | GMERVLQGLSSPLRLL | -3.38
77 | GMERVLRGLSSPLRLL | 18.46
78 | GMERVLSGLSSPLRLL | 2.55
79 | GMERVLTGLSSPLRLL | -43.42
80 | GMERVLVGLSSPLRLL | -3.34
81 | GMERVLWGLSSPLRLL | 321.97
82 | GMERVLYGLSSPLRLL | 2.20
83 | GMERVNGGLSSPLRLL | 321.97
84 | GMERVPGGLSSPLRLL | 12.38
85 | GMERVQGGLSSPLRLL | 107.32
86 | GMERVSGGLSSPLRLL | 321.97

Row | Substance | hit_pair_ratio
87 | GMERVTGGLSSPLRLL | 40.25
88 | GMERVVGGLSSPLRLL | 321.97
89 | GMERWLGGLSSPLRLL | -5.43
90 | GMERYLGGLSSPLRLL | -2.09
91 | GMETVLGGLSSPLRLL | 321.97
92 | GMEWVLGGLSSPLRLL | 40.25
93 | GMFRVLGGLSSPLRLL | 321.97
94 | GMHRVLGGLSSPLRLL | 16.95
95 | GMLRVLGGLSSPLRLL | 32.20
96 | GMNRVLGGLSSPLRLL | 2.27
97 | GMPRVLGGLSSPLRLL | 21.46
98 | GMQRVLGGLSSPLRLL | 1.88
99 | GMSRVLGGLSSPLRLL | 9.14
100 | GMTRVLGGLSSPLRLL | 23.00
101 | GMVRVLGGLSSPLRLL | 160.99
102 | GMWRVLGGLSSPLRLL | 15.33
103 | GMYRVLGGLSSPLRLL | 17.24
104 | GNERVLGGLSSPLRLL | -3.41
105 | GPERVLGGLSSPLRLL | -9.75
106 | GQERVLGGLSSPLRLL | -1.16
107 | GRERVLGGLSSPLRLL | 1.40
108 | GSERVLGGLSSPLRLL | -3.84
109 | GTERVLGGLSSPLRLL | -5.86
110 | GVERVLGGLSSPLRLL | -8.18
111 | GWERVLGGLSSPLRLL | 3.37
112 | GYERVLGGLSSPLRLL | 1.08
113 | IMERVLGGLSSPLRLL | 24.34

Same assay, conditions: bait USP8_Rhodanese__P40818_174_317; wild-type/mutant pair ratio of averaged fractions; negative values where mutant fraction is higher

Row | Substance | hit_pair_ratio
114 | HMERVLGGLSSPLRLL | -2.43

Same assay, conditions: wild type/mutant pair; bait USP8_Rhodanese__P40818_174_317; vs hit_library_peptide_wt GLALWEAKMKQLAERA; negative where mutant fraction exceeds wild type; ProP-PD pairs (sheet S7.B)

Row | Substance | hit_pair_ratio
115 | GPALWEAKMKQLAERA | 1107.01
116 | GRALWEAKMKQLAERA | 1107.01
117 | GSALWEAKMKQLAERA | 417.62
118 | GTALWEAKMKQLAERA | 1107.01
119 | GVALWEAKMKQLAERA | -1.59
120 | GWALWEAKMKQLAERA | 11.95
121 | GYALWEAKMKQLAERA | 276.75
